Drawing on patent US11655235B2, “Pyrrolidine and piperidine compounds” (YUHAN CORPORATION, priority 2019, dated 2023), this text covers IC50 for 12 compounds.

Where two headings read alike, the source gives them in different places.

Format in all cases: biochemical
Assay [1] concerns the target T1, recombinant human DPP7 (Homo sapiens, UniProt Q9UHL4).
T1 construct: purchased R&D Systems
Nature of the assay: DPP7 inhibition, fluorogenic substrate Lys-Pro-AMC. The procedure, abridged: (§1)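 Inhibitors are titrated in an 8-point series into the enzyme's assay buffer (DMSO no more than 0.5%). Substrate cleavage at 25 °C is followed by fluorescence, excitation 380 nm and emission 460 nm. IC50 values come from a four-variable logistic model.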

The target of assay [2] is T2, recombinant human DPP8 (Homo sapiens, UniProt Q6V1X1).
T2 construct: purchased PBS Bioscience
The assay is described as follows: DPP8 inhibition, fluorogenic substrate Z-Ala-Pro-AMC. An outline of the steps:
as §1

The target in assay [3] is T3, recombinant human DPP9 (Homo sapiens, UniProt Q86TI2).
T3 construct: purchased R&D Systems
Nature of the assay: DPP9 inhibition, fluorogenic substrate H-Gly-Pro-AMC. The procedure, abridged:
as §1

Assay [4] deals with T4, recombinant human PREP (Homo sapiens, UniProt P48147).
T4 construct: purchased R&D System
T4 sequence (P48147 1-710): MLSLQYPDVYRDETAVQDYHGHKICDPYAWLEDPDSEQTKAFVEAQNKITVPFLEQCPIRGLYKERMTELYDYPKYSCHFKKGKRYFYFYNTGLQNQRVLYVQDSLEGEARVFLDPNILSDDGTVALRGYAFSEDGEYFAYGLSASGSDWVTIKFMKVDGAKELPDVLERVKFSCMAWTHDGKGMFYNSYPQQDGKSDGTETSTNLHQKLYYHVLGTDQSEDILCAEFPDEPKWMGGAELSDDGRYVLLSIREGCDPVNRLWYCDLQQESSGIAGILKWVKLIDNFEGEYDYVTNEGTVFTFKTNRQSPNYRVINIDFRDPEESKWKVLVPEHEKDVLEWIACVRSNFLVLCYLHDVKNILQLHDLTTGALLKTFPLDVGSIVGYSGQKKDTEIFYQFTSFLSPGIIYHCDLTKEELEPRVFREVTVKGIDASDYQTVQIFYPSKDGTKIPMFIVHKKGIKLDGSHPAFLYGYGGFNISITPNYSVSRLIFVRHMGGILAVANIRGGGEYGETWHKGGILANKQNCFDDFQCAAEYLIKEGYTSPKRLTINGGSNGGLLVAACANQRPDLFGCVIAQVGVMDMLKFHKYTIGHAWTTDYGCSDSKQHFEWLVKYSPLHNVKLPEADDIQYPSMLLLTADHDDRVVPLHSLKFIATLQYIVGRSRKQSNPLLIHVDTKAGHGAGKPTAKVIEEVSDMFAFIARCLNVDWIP
The assay is described as follows: PREP inhibition, fluorogenic substrate Z-Gly-Pro-AMC. To be noted: Inhibitory Activity (IC50, nM) PREP. An outline of the steps:
as §1

For assay [5], the target named is T5, Recombinant human FAP (Homo sapiens, UniProt Q12884).
T5 construct: purchased R&D systems
T5 sequence (Q12884 1-760): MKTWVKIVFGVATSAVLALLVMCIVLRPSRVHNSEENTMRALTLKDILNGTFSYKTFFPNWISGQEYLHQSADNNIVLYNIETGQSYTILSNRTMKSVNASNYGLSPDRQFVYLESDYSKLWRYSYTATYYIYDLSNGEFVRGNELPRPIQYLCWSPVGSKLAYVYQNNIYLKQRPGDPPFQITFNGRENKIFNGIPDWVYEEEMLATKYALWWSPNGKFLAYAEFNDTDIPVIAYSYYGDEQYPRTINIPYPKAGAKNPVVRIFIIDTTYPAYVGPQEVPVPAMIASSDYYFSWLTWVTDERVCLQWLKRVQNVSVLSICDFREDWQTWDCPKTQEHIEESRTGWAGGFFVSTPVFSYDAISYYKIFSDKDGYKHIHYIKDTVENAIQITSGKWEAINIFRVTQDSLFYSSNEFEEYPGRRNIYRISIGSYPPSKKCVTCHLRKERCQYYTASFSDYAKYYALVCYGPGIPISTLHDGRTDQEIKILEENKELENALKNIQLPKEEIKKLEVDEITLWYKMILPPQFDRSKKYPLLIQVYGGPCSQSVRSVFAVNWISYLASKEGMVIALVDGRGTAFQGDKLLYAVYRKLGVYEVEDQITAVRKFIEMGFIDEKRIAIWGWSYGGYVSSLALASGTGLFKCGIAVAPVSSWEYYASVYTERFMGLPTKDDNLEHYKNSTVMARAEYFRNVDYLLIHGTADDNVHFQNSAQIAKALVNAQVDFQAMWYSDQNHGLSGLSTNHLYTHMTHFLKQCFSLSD
Nature of the assay: FAP FRET assay, FGF21-sequence FRET peptide substrate. To be noted: FRET peptide with human FGF21 sequence, 6 μM, 37° C. The procedure, abridged: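 FRET peptide bearing human FGF21 sequence (6 μM final) cleaved by 10 ng recombinant human FAP at 37° C in HEPES pH 7.2 buffer with NaCl, BSA and EDTA, DMSO up to 0.1%. Signal-rate decrease versus uninhibited control fitted to a four-variable logistic model for IC50.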

Assay [6] has as its target DPP4 (Homo sapiens, UniProt P27487). The assay is described as follows: DPP4 inhibition, fluorogenic substrate H-Gly-Pro-AMC. Also on record: purchased R&D Systems.
Assay [7] concerns the target T5, Recombinant human FAP. Nature of the assay: FAP inhibition, fluorogenic substrate Z-Gly-Pro-AMC. An outline of the steps:
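Eight-point compound dilutions (≤0.1% DMSO) were incubated at 25° C with 10 ng recombinant human FAP in Tris pH 7.5/1 M NaCl/BSA buffer and Z-Gly-Pro-AMC. Inhibition was taken as % drop in fluorescence rate (380/460 nm) against uninhibited control; IC50 came from a four-parameter logistic fit.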

Setting [8] is: recombinant human FAP, substrate Z-Gly-Pro-AMC.
[9] abbreviates: 25° C., Z-Gly-Pro-AMC substrate.
[10] abbreviates: 25° C., Z-Ala-Pro-AMC substrate.
Where [11] appears, read: 25° C., H-Gly-Pro-AMC substrate.

T2 sequence (Q6V1X1 whole entry): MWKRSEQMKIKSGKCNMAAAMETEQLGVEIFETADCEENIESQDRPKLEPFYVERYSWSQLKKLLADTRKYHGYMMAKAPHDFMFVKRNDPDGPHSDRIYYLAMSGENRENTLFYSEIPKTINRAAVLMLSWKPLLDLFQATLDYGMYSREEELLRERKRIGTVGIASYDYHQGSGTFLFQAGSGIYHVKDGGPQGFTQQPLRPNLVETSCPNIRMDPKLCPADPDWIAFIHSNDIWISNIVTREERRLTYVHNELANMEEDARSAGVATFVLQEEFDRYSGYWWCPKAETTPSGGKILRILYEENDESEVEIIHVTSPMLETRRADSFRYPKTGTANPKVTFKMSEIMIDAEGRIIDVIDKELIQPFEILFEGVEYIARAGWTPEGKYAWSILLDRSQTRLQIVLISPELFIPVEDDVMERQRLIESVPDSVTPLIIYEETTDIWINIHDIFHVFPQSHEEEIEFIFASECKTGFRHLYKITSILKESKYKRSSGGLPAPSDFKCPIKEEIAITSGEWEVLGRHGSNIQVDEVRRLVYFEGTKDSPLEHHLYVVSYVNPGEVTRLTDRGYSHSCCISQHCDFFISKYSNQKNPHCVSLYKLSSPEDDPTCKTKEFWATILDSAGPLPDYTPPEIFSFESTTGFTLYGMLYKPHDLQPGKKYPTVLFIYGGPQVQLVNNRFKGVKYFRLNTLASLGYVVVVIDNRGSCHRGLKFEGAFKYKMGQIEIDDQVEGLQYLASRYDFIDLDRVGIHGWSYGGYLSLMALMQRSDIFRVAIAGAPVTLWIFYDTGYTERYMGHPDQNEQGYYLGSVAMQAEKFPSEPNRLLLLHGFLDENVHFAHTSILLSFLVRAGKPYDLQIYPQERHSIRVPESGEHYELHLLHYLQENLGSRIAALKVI
DPP4, sequence (P27487 whole entry): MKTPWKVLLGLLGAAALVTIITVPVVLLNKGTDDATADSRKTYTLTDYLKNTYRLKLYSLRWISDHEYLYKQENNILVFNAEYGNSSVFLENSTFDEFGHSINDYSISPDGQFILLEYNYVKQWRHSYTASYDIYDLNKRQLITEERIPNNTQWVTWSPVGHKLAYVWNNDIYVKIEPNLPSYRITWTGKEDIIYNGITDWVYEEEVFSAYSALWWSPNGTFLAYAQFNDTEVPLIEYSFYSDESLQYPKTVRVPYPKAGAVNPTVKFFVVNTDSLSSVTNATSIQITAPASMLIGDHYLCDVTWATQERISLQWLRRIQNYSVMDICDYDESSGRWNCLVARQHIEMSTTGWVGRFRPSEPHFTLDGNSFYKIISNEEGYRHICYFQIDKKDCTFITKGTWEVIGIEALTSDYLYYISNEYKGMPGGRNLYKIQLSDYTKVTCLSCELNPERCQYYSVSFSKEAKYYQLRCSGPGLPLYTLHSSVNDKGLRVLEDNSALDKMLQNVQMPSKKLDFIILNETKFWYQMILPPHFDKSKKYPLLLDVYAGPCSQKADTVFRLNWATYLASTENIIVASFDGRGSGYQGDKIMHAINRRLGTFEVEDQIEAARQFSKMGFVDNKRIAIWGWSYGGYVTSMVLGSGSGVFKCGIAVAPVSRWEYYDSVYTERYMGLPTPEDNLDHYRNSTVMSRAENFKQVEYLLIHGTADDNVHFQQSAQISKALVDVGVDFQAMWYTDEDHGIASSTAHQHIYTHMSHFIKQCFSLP
T3 sequence (Q86TI2 whole entry): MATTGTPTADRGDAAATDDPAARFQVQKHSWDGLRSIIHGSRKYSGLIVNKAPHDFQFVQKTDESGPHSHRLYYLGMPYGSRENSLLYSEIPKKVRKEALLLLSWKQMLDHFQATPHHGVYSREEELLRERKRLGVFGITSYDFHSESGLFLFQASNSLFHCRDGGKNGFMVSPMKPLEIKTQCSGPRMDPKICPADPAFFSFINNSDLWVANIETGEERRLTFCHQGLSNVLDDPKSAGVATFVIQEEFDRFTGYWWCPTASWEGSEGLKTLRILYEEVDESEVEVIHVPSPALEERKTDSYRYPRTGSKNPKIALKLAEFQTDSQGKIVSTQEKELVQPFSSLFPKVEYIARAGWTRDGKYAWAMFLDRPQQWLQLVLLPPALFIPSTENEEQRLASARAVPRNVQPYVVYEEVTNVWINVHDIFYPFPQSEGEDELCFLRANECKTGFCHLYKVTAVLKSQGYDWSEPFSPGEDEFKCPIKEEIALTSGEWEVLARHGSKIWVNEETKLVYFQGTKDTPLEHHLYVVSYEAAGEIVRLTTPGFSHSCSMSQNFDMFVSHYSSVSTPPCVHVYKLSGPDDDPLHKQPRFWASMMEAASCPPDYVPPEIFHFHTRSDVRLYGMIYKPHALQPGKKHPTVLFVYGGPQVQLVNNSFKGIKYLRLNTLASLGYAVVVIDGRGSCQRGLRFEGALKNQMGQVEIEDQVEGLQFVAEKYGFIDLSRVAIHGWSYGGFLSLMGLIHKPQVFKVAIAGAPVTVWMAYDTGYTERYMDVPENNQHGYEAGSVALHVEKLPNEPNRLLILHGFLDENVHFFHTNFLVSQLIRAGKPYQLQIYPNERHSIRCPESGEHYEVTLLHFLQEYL

Regarding `N#C[C@@H]1CCCN1C(=O)CN1CCC(Nc2ccc(C(=O)Nc3cccnc3)c3ncccc23)CC1` [Example 400, 5-[[1-[2-oxo-2-[(2S)-2-cyanopyrrolidin-1-yl]ethyl]-4-piperidyl]amino]-N-(3-pyridyl)quinoline-8-carboxamide], the IC50 came out at 961 nM in assay [1] (recombinant human DPP7); 971 nM in assay [2] (recombinant human DPP8); 2010 nM in assay [3] (recombinant human DPP9); 1960 nM in assay [4] (recombinant human PREP); 2.3 nM in assay [5]; 17400 nM in assay [6] (recombinant human DPP4).
Regarding `N#C[C@@H]1C[C@H](F)CN1C(=O)CN1CC[C@H](Nc2ccc(F)c3ncccc23)C1` [Example 264, (2S,4S)-4-fluoro-1-[2-[(3S)-3-[(8-fluoro-5-quinolyl)amino]pyrrolidin-1-yl]acetyl]pyrrolidine-2-carbonitrile], the IC50 in assay [7] (setting [8]) was found to be 1.3 nM; in assay [1] (recombinant human DPP7), 2270 nM; in assay [2] (recombinant human DPP8), 3600 nM; in assay [5], 2.4 nM; in assay [6] (recombinant human DPP4), 1040 nM.
As to `CNC(=O)c1ccc(N[C@H]2CCN(CC(=O)N3CCC[C@H]3C#N)C2)c2cccnc12` [Example 286, N-methyl-5-[[(3S)-1-[2-oxo-2-[(2S)-2-cyanopyrrolidin-1-yl]ethyl]pyrrolidin-3-yl]amino]quinoline-8-carboxamide], the IC50 in assay [1] (recombinant human DPP7) came to 3100 nM; in assay [2] (recombinant human DPP8), 19800 nM; in assay [3] (recombinant human DPP9), 32200 nM; in assay [4] (recombinant human PREP) it was 6300 nM; in assay [5], 9.3 nM; in assay [6] (recombinant human DPP4), 10900 nM.
Consider `N#C[C@@H]1CCCN1C(=O)CN1CC[C@@H](Nc2ccc(OC(F)(F)F)c3ncccc23)C1` [Example 202, (2S)-1-[2-[(3R)-3-[[8-(trifluoromethoxy)-5-quinolyl]amino]pyrrolidin-1-yl]acetyl]pyrrolidine-2-carbonitrile], for which the half-inhibitory concentration (IC50) in assay [1] (recombinant human DPP7) came to 6810 nM; in assay [2] (recombinant human DPP8) it was 14200 nM; in assay [3] (recombinant human DPP9) it was 13100 nM; in assay [4] (recombinant human PREP), 8080 nM; in assay [5], 2.3 nM; in assay [6] (recombinant human DPP4), 12100 nM.
For the compound `N#C[C@@H]1C[C@H](F)CN1C(=O)CN1CC[C@@H](Nc2cccc3ncc(F)cc23)C1` [Example 184, (2S,4S)-4-fluoro-1-[2-[(3R)-3-[(3-fluoro-5-quinolyl)amino]pyrrolidin-1-yl]acetyl]pyrrolidine-2-carbonitrile], the IC50 in assay [1] (recombinant human DPP7) was found to be 2760 nM; in assay [2] (recombinant human DPP8), 2430 nM; in assay [3] (recombinant human DPP9) it was 5150 nM; in assay [4] (recombinant human PREP) it was 3150 nM; in assay [5], 3.2 nM; in assay [6] (recombinant human DPP4), 1290 nM.
In the case of `N#C[C@@H]1CCCN1C(=O)CN1CCC(Nc2ccc(C(=O)Nc3ncccn3)c3ncccc23)CC1` [Example 402, 5-[[1-[2-oxo-2-[(2S)-2-cyanopyrrolidin-1-yl]ethyl]-4-piperidyl]amino]-N-pyrimidin-2-yl-quinoline-8-carboxamide], the IC50 in assay [1] (recombinant human DPP7) stood at 1160 nM; in assay [2] (recombinant human DPP8), 1520 nM; in assay [3] (recombinant human DPP9), 7830 nM; in assay [4] (recombinant human PREP), 359 nM; in assay [5] it was 3.7 nM; in assay [6] (recombinant human DPP4), 12400 nM.
For `CN(c1ccc(C(F)(F)F)c2ncccc12)[C@H]1CCN(CC(=O)N2C[C@@H](F)C[C@H]2C#N)C1` [Example 159, (2S,4S)-4-fluoro-1-[2-[(3S)-3-[methyl-[8-(trifluoromethyl)-5-quinolyl]amino]pyrrolidin-1-yl]acetyl]pyrrolidine-2-carbonitrile], the IC50 in assay [1] (recombinant human DPP7) turned out to be 61 nM; in assay [2] (recombinant human DPP8), 7590 nM; in assay [3] (recombinant human DPP9) it was 3700 nM; in assay [4] (recombinant human PREP) it was 430 nM; in assay [5], 6.7 nM; in assay [6] (recombinant human DPP4), 1860 nM.
As to `Cc1cnc2cccc(N(C)[C@H]3CCN(CC(=O)N4C[C@@H](F)C[C@H]4C#N)C3)c2c1` [Example 155, (2S,4S)-4-fluoro-1-[2-[(3S)-3-[methyl-(3-methyl-5-quinolyl)amino]pyrrolidin-1-yl]acetyl]pyrrolidine-2-carbonitrile], the IC50 in assay [1] (recombinant human DPP7) worked out at 2900 nM; in assay [2] (recombinant human DPP8), 9850 nM; in assay [3] (recombinant human DPP9), 5720 nM; in assay [4] (recombinant human PREP), 2540 nM; in assay [5] it was 2.4 nM; in assay [6] (recombinant human DPP4), 1850 nM.
For `N#C[C@@H]1CCCN1C(=O)CN1CC[C@H](Oc2cccc3cnccc23)C1` [Example 65, (S)-1-(2-((S)-3-(isoquinolin-5-yloxy)pyrrolidin-1-yl)acetyl)pyrrolidine-2-carbonitrile], the IC50 in assay [7] (setting [9]) was 6.77 nM; in assay [1] it was 3400 nM; in assay [2] (setting [10]), more than 100000 nM; in assay [3] (setting [11]) it was 70600 nM; in assay [4] (setting [9]), 85700 nM; in assay [6] (setting [11]), more than 1000 nM.
As for `N#C[C@@H]1CCCN1C(=O)CN1CC[C@H](Nc2cc(C(F)(F)F)cc3ncccc23)C1` [Example 238, (2S)-1-[2-[(3S)-3-[[7-(trifluoromethyl)-5-quinolyl]amino]pyrrolidin-1-yl]acetyl]pyrrolidine-2-carbonitrile], the IC50 in assay [7] (setting [8]) was 1.4 nM; in assay [1] (recombinant human DPP7), 2200 nM; in assay [2] (recombinant human DPP8) it was more than 100000 nM; in assay [3] (recombinant human DPP9) it was 29300 nM; in assay [4] (recombinant human PREP), 3930 nM; in assay [6] (recombinant human DPP4), more than 10000 nM.
For the compound `N#C[C@@H]1C[C@H](F)CN1C(=O)CN1CC[C@H](Nc2ccnc3c(C(F)(F)F)cccc23)C1` [Example 271, (2S,4S)-4-fluoro-1-[2-[(3S)-3-[[8-(trifluoromethyl)-4-quinolyl]amino]pyrrolidin-1-yl]acetyl]pyrrolidine-2-carbonitrile], the IC50 came to 1.4 nM in assay [7] (setting [8]); 213 nM in assay [1] (recombinant human DPP7); 7980 nM in assay [2] (recombinant human DPP8); 4410 nM in assay [3] (recombinant human DPP9); 3740 nM in assay [4] (recombinant human PREP); 3790 nM in assay [6] (recombinant human DPP4).
For the compound `N#C[C@@H]1CCCN1C(=O)CN1CCC(Nc2cc(F)cc3ncccc23)CC1` [Example 123, (S)-1-(2-(4-((7-fluoroquinolin-5-yl)amino)piperidin-1-yl)acetyl)pyrrolidine-2-carbonitrile], the IC50 was 2.41 nM in assay [7] (setting [9]); 1280 nM in assay [1]; more than 30000 nM in assay [2] (setting [10]); 44900 nM in assay [3] (setting [11]); 20100 nM in assay [4] (setting [9]); more than 10000 nM in assay [6] (setting [11]).

The IC50 is the concentration at which inhibition is half-maximal.
